Data published in patent publication US20190351006A1, “METHODS OF ADMINISTRATION OF NMDA RECEPTOR AGONISTS” (Naurex Inc., priority 2017, published 2019).
Peptide text beside a SMILES is read from it.

Key:
C57BL/6J mice = test: In vivo microdialysis of neurotransmitter efflux in mPFC and HIP; set-up: species or system Male C57BL/6J mice; conditions: rapastinel 1 mg/kg subcu, ketamine 30 mg/kg
Experimental: (§1) Animals: Male C57BL/6J mice 22-25 g (21/2 to 3 month old) were used is these studies. Drugs: Rapastinel was obtained from SAI Life Sciences (India). Rapastinel, PCP, and ketamine were dissolved in 0.9% sterile saline (Sal). PCP and ketamine were administered intraperitoneally (ip), at a volume of 10 mL/kg body weight. Rapastinel was given subcutaneously (subcu), and rapamycin was given intracerebroventricularly (icy). Drug Treatments: Male C57BL/6J mice were randomly assigned to treatment groups of 10 per group. To develop the cognitive deficit, groups of 10 mice were treated with PCP (10 mg/kg i.p., twice a day for 7 days) followed by a 7-day washout period. Following the washout period, the subchronic PCP mice were tested to determine that an NOR deficit had been established. See Rajagopal et al 3,4. See FIG. 7, for treatment schedules. Behavior, in vivo Microdialysis (MD) and ICV Procedures—The procedures have been described in detail in References 3,10,11,12,13. See FIG. 7. for pictorial representations of drug treatment protocols. Rapastinel's ability to restore episodic memory (NOR) and cognitive flexibility (RL), like its antidepressant action in rodents, is mTOR dependent as indicated by blockade by ICV rapamycin. […]

scPCP-treated mice [1] = test: Novel object recognition (NOR) in subchronic PCP (scPCP) mice; assay type: in vivo, Male C57BL/6J mice
Experimental: Animals: Male C57BL/6J mice 22-25 g (21/2 to 3 month old) were used is these studies. Drugs: Rapastinel was obtained from SAI Life Sciences (India). Rapastinel, PCP, and ketamine were dissolved in 0.9% sterile saline (Sal). PCP and ketamine were administered intraperitoneally (ip), at a volume of 10 mL/kg body weight. Rapastinel was given subcutaneously (subcu), and rapamycin was given intracerebroventricularly (icy). Drug Treatments: Male C57BL/6J mice were randomly assigned to treatment groups of 10 per group. To develop the cognitive deficit, groups of 10 mice were treated with PCP (10 mg/kg i.p., twice a day for 7 days) followed by a 7-day washout period. Following the washout period, the subchronic PCP mice were tested to determine that an NOR deficit had been established. See Rajagopal et al 3,4. See FIG. 7, for treatment schedules. Behavior, in vivo Microdialysis (MD) and ICV Procedures—The procedures have been described in detail in References 3,10,11,12,13. See FIG. 7. for pictorial representations of drug treatment protocols. Rapastinel's ability to restore episodic memory (NOR) and cognitive flexibility (RL), like its antidepressant action in rodents, is mTOR dependent as indicated by blockade by ICV rapamycin. […] Increase in cortical DA efflux, in transient and subchronic rescue by rapastinel, may be important for triggering neuroplastic changes in AMPAR modulation of the activity of principal neurons in mPFC and HIP.

scPCP-treated mice [2] = test: Reversal learning (RL) task in subchronic PCP mice; assay type: in vivo, Male C57BL/6J mice
Experimental: as §1

[3] = PCP 10 mg/kg i.p. twice a day for 7 days, then 7-day washout

Row | SMILES | Neurotransmitter efflux in mPFC (C57BL/6J mice) | DI in NOR vs vehicle-treated mice (scPCP-treated mice [1]; [3]) | Percent correct responses in RL vs veh-treated mice (scPCP-treated mice [2]; [3]) | Duration of rescue of NOR deficit after subchronic rapastinel, 5 days (scPCP-treated mice [1]; scPCP mice, 1 mg/kg sc, b.i.d. for 5 days) | NOR deficit (DI), acute rapastinel (scPCP-treated mice [1]; scPCP mice, 1 mg/kg subcu, 30 min before AT) | Reversal of scPCP-induced NOR deficit, 5 day vs 3 day treatment (scPCP-treated mice [1]; scPCP mice, 1 mg/kg subcu, b.i.d. for 5 days) | NOR after a single acute dose once the subchronic effect had ended (scPCP-treated mice [1]; scPCP mice, single dose 1 mg/kg sc, 30 min prior to AT, week 10 (or week 11)) | RL deficit (percent correct responses), acute rapastinel (scPCP-treated mice [2]; scPCP mice, 1 mg/kg sc, 30 min before reversal phase of the RL task)
1 | CNC1(c2ccccc2Cl)CCCCC1=O (stereo not drawn) [Ketamine, ketamine, reference compound] | very large increases in the efflux of ACh, DA, 5-HT, DOPAC, 5-HIAA, and glutamate, and serine |  |  |  |  |  |  | 
2 | c1ccc(C2(N3CCCCC3)CCCCC2)cc1 [PCP, reference compound] |  | reduced DI | reduced percent correct responses |  |  |  |  | 
3 | C[C@@H](O)[C@H](N)C(=O)N1CCC[C@H]1C(=O)N1CCC[C@H]1C(=O)N[C@H](C(N)=O)[C@@H](C)O [rapastinel] (H-TPPT-NH2) | small selective increase in DA efflux |  |  | at least 10 weeks | rescued NOR deficit | longer compared to 3 day treatment | restored NOR | rescued RL deficit
